Measured values published in patent US20240304840A1 (priority 2023, published 2024).

Settings: 1 mAh H-cell, 1 M sodium chloride, Selemion AMVN, about 20 days
Text: An H-cell can be used for the coulombic efficiency tests. […] The electrolyte can be dissolved in about 1 M sodium chloride for electrochemical stability testing. The moles of anolyte and catholyte molecules present can be controlled to achieve the desired capacity of 1 mAh. […] Selemion™ anion exchange membrane (AMVN) can be used for the H-cells.

C[N+](C)(C)CCC[N+](C)(C)CCCN1C(=O)c2ccc3c4ccc5c6c(ccc(c7ccc(c2c37)C1=O)c64)C(=O)N(CCC[N+](C)(C)CCC[N+](C)(C)C)C5=O [PDI-tetraammonium-Cl4]
crossover in H-cell: almost no crossover
